# Residues, ends and D or L forms follow the SMILES beside them. *: point of attachment. Cbz = O=C(OCc1ccccc1)*
# Assays:
# SU86.86 cells = test: qPCR, immunoblotting and flow cytometry of PD-L1 and MHC-I pathway expression in SU86.86 cells; type: cell-based, human; details: immunoblotting, mifepristone 20 μM, 48 h with MG132 (10 μM, 6 h) or chloroquine (20 μM, 4 h)
# Method: (See Bardeesy, N., et al. supra). The human PDAC cell lines SU86.86 ([…]), SW1990 ([…]), BXPC-3 ([…]), Miapaca-2 ([…]), Capan-1 ([…]), ASPC-1 ([…]), Hs766T ([…]), Colo357/FG ([…]), L3.6PL ([…]), Panc28 ([…]), Capan-2 ([…]), CF-Pac-1 ([…]), Panc3 (sex unknown), Panc1 ([…]), Panc48 (sex unknown), and HPAC ([…]) were from Mien-Chie Hung's lab stock. […] The BXPC-3, Miapaca-2, Capan-1, ASPC-1, Colo357/FG, L3.6PL, Panc28, Capan-2, CF-Pac-1, Panc3, Panc1, Panc48, and HPAC cell lines were cultured in DMEM/F-12 (Corning, 10-092-CV) supplemented with 10% FBS and 1% penicillin/streptomycin. Cells were grown in a humidified incubator with 5% CO2 at 37° C., and low-passage stocks were maintained in a centralized lab cell bank. Short tandem repeat profiling and mycoplasma tests were done by the Cytogenetics and Cell Authentication Core at MD Anderson Cancer Center.
# Membranes were blocked with 10% non-fat milk in TBST and incubated with the primary antibody at 4° C. overnight, followed by incubation with the secondary antibody conjugated with horseradish peroxidase (HRP).
# [1] = test system: human PD-L1, HLA-B, HLA-C, and B2M gene promoter regions; test: Luciferase reporter assay in SU86.86 cells; type: cell-based; details: IFNγ 10 ng ml^−1, 8 h, abrogated by knockdown of GR
# Text: (§1) Human PD-L1 promoter-reporter constructs (Coelho, M. A., et al. Oncogenic RAS Signaling Promotes Tumo Immunoresistance by Stabilizing PD-L1 mRNA. Immunity 47, 1083-1099 e1086 (2017)) were purchased from Addgene (Addgene numbers: 107002, 107003, 107004, 107006, and 107007). The GR activity reporter plasmid was purchased from Qiagen (ID: C82DB0D7-3D10-4B1C-A358-411558D2DE01). The promoter regions of human HLA-B, HLA-C, and B2M were PCR-amplified from genomic DNA of the SU86.86 cell line (PCR primers are listed as SEQ ID NOs.: 1-6. The linearized pGL3-basic plasmid was amplified by PCR (Forward primer SEQ ID NO: 7; reverse primer SEQ ID NO: 8), and PCR products of promoter regions were ligated to linearized pGL3-basic using the In-Fusion HD Cloning Kit (Takara Bio, 638909).
# (§2) The firefly luciferase reporter containing the human gene promoter was co-transfected with a Renilla luciferase vector (for normalization) into SU86.86 cells using jetPRIME transfection reagent (VWR, 89129-922). […] Firefly and Renilla luciferase activities were measured using a Dual-Luciferase Reporter Assay (Promega, E1910) on a microplate reader according to the manufacturer's protocol. Firefly luciferase activity was normalized to Renilla luciferase activity.
# [2] = test system: human PD-L1 gene promoter regions; test: Luciferase reporter assay in SW1990 cells; type: cell-based; details: IFNγ 10 ng ml^−1, 8 h, abrogated by knockdown of GR
# Text: as §1, §2
Molecule,effect on mifepristone-mediated PD-L1 downregulation and MHC-I upregulation (SU86.86 cells),activity of the PD-L1 promoter reporters [1],activity of the PD-L1 promoter reporters [2]
CCN(CC)CCCC(C)Nc1ccnc2cc(Cl)ccc12 (stereo not shown) [chloroquine],did not affect,–,–
CC(C)C[C@@H](C=O)NC(=O)[C@H](CC(C)C)NC(=O)[C@H](CC(C)C)NC(=O)OCc1ccccc1 [MG132] (Cbz-Leu-Leu-Leu-aldehyde),did not affect,–,–
"IFNγ: IFNγ (known to activate PD-L1 transcription) (protein, UniProt P01579 24-161, looked up) Interferon gamma: QDPYVKEAENLKKYFNAGHSDVADNGTLFLGILKNWKEESDRKIMQSQIVSFYFKLFKNFKDDQSIQKSVETIKEDMNVKFFNSNKKKRDDFEKLTNYSVTDLNVQRKAIHELIQVMAELSPAAKTGKRKRSQMLFRG",–,induced,induced

# Reference: patent publication US20250032506A1, “GLUCOCORTICOID RECEPTOR BLOCKADE WITH MIFEPRISTONE TO SENSITIZE PANCREATIC CANCER TO IMMUNOTHERAPY” (BOARD OF REGENTS, THE UNIVERSITY OF TEXAS SYSTEM, priority 2021, published 2025)
